The values that follow come from patent US20240051957A1, “CRYSTALLINE FORM OF HETEROCYCLIC COMPOUND AS PROTEIN KINASE INHIBITOR” (HK INNO.N CORPORATION, priority 2021, published 2024).

The nature of data set [1]: TGA/SDTA and TGMS analysis. The format is physicochemical. To be noted: heating 25° C. to 300° C. at 10° C./min. The procedure: 3. TGA/SDTA and TGMS Analysis
A mass loss caused by solvent or a moisture loss from crystals was determined by thermogravimetric analysis/simultaneous differential thermal analysis (TGA/SDTA). A weight versus temperature curve was generated by monitoring the weight of samples during heating in a TGA/SDTA851e apparatus (product name, Mettler-Toledo GmbH, Switzerland). TGA/SDTA851e was calibrated with indium and aluminum samples. The sample was placed in a 100 μL aluminum crucible and sealed, and then a pin-hole was drilled therein. The crucible was heated from 25° C. to 300° C. in TGA at a heating rate of 10° C./min. Dry N2 gas was used for purging. The gas coming out of the TGA sample was analyzed by Omnistar GSD 301 T2 (product name, Pfeiffer Vacuum GmbH, Germany), which was a quadrupole mass spectrometer for analyzing a mass in the range of 0-200 amu.

Data set [2] is described as follows: Physical stability evaluation under stress conditions (XRPD before/after). The data set is classed as physicochemical. To be noted: stored at 60° C.±2° C./80% RH±5% for two days, packaged ((LPDE+N2)+silica gel 1 g+LDPE)+Al-Bag. The procedure: 1. XRPD Analysis A plate for obtaining an XRPD pattern was mounted on a Bruker General Area Detector Diffraction System (GADDS) equipped with a VANTEC-500 gas domain detector calibrated for intensity and geometric changes. Calibration of measurement accuracy (peak position) was performed using NIST SRM1976 standard (Corundum). Data collection was performed at room temperature using monochromatic CuKα radiation in a diffraction angle (2θ) region of 1.5° to 41.5°, the most distinct part of the XRPD pattern. The diffraction pattern of each well was collected at two 2θ ranges (1.5°≤2θ≤21.5° for a first frame and 9.5°≤2θ≤41.5° for a second frame) with an exposure time of 90 seconds for each frame. No background subtraction or curve smoothing was applied to the XRPD pattern. The carrier material used in the XRPD analysis was transparent to X-rays.
4. Experiment on Physical Stability Evaluation
Samples were packaged in the form of ((LPDE+N2)+silica gel 1 g+LDPE)+Al-Bag, and stored under stress conditions (60° C.±2° C./80% RH±5%) for two days before evaluation.

For `C[C@@H]1CN(C(=O)CC#N)CC=C1c1cc(NC(=O)C2CC2)nc2[nH]ccc12` [(S)-N-(4-(1-(2-cyanoacetyl)-3-methyl-1,2,3,6-tetrahydropyridin-4-yl)-1H-pyrrolo[2,3-b]pyridin-6-yl)cyclopropanecarboxamide], the “start of thermal decomposition” value in data set [1] (TGA) was “about 260 °C”. Further, in data set [1] (at 150° C.), the “mass reduction rate (thermogravimetric analysis)” value came out at 1.6%.

As to `C[C@@H]1CN(C(=O)CC#N)CC=C1c1cc(NC(=O)C2CC2)nc2[nH]ccc12` [Example 1, (S)-N-(4-(1-(2-cyanoacetyl)-3-methyl-1,2,3,6-tetrahydropyridin-4-yl)-1H-pyrrolo[2,3-b]pyridin-6-yl)cyclopropanecarboxamide], the “change in the XPRD pattern before/after the stress conditions (physical stability)” value in data set [2] is listed as “substantially no change in the XPRD pattern”.
